For one experiment, the target named is T1, PI3Kα kinase (Homo sapiens, UniProt P42336).
T1 construct: purchased Invitrogen PV4788
In words: PI3Ka Transcreener ADP assay (fluorescence polarization). It counts as biochemical. Particulars: 10 μM ATP, 30 μmol/L lipid substrate; read-out: IC50, inhibition of PI3Kα kinase. The protocol:
Fluorescence polarization was used in this assay. The final conditions for kinase assay are 10 μM of ATP, 0.2 ng/μL of PI3Kα kinase, 30 μmol/L of lipid substrate and assay buffer (50 mmol/L of HEPES (pH 7.5), 100 mmol/L of NaCl, 1 mmol/L of EGTA, 3 mmol/L of MgCl2, 1 mmol/L of DTT and 0.03% CHAPS and 2% DMSO).
5 μL of test compounds in 10% DMSO and 10 μL of 0.5 ng/μL PI3K kinase (Invitrogen, PV4788) in assay buffer are put into a 96-well plate (Greiner, Cat. 675076), and then the reaction is started by the addition of 10 μL of 75 μmol/L PIP2, (PS Lipid Substrate Invitrogen, PV5100), and 25 μmol/L ATP mixture. After the mixture is incubated for 60 minutes at room temperature, 25 μL of transcreener Kinase Kit reagent—ADP Detection Mix—(Bellbrook Labs) is added, and the reaction is continued for an additional 1.5 hours. At the end, the plate is read in a Tecan Infinite F500 at excitation of 610 nm and emission of 670 nm.
A standard curve for ADP is obtained in a parallel way by replacing compound and PI3Kα kinase with DMSO and assay buffer, respectively. Different concentration of ADP, 0-10 μM, and ATP, 10-0 μM (ATP+ADP equal to 10 μM) are applied instead of a fixed concentration of ATP in this standard curve assay. Other conditions are the same as described above. The standard curve is plotted using Origin 8.0 software. The inhibition of test compound on ADP production is calculated based on ADP concentration from standard curve. IC50 is obtained using XLfit 2.0 software.
On the technique in general: In fluorescence polarisation assays a small probe gives low polarisation when free and higher when bound to something large.

The target in a further experiment is T2, mTOR kinase (Homo sapiens, UniProt P42345).
T2 construct: purchased Invitrogen PV4753
In words: mTOR LanthaScreen TR-FRET assay. It is filed as biochemical. Particulars: 10 μmol/L ATP, GFP-4EBP1 substrate; read-out: IC50, inhibition of mTOR. The protocol:
Compounds are tested using LanthaScreen TR-FRET Assay. The kinase reaction is completed in 384-well black plate (Corning, Cat. 3676). The final conditions for kinase assay are: 10 μmol/L of ATP, 0.2 ng/μL of mTOR kinase, 0.4 μmol/L of GFP-4EBP1 substrate and assay buffer (50 mmol/L of HEPES, pH 7.5, 0.01% of Tween 20, 1 mmol/L of EGTA, 10 mmol/L of MnCl2, 2 mmol/L of DTT and 1% DMSO).
To each well, 2.5 μL of test compounds in 4% DMSO and 2.5 μL of 0.8 ng/μL mTOR kinase (Invitrogen, PV4753) diluted in assay buffer are added. The reaction is initiated by the addition of 5 μL mixture of 0.8 μmol/L GFP-4EBP1 Substrate (Invitorgen, PV4759) and 20 μmol/L ATP mixtures. The mixture is incubated at room temperature for 60 minutes. 10 μL of 20 mmol/L EDTA and 4 nmol/L Tb-anti-p4EBP1 [pThr46] antibody (Invitrogen, PV4755) diluted in TR-FRET dilution buffer are added and incubated for an additional 1 hour. The plate is then read in a BioTek Synergy2 Reader at excitation of 340 nm and emission of 490 nm and 528 nm.
The inhibition of test compound is calculated based on the ratio of 528 nm/490 nm. IC50 of test compound is obtained using XLfit 2.0 software.

The values that follow come from patent US9181264B2, “Fused heteroaryls and their uses” (Hutchison MediPharma Limited, priority 2011, dated 2015).

T2 sequence (P42345 1360-2549 limits assumed): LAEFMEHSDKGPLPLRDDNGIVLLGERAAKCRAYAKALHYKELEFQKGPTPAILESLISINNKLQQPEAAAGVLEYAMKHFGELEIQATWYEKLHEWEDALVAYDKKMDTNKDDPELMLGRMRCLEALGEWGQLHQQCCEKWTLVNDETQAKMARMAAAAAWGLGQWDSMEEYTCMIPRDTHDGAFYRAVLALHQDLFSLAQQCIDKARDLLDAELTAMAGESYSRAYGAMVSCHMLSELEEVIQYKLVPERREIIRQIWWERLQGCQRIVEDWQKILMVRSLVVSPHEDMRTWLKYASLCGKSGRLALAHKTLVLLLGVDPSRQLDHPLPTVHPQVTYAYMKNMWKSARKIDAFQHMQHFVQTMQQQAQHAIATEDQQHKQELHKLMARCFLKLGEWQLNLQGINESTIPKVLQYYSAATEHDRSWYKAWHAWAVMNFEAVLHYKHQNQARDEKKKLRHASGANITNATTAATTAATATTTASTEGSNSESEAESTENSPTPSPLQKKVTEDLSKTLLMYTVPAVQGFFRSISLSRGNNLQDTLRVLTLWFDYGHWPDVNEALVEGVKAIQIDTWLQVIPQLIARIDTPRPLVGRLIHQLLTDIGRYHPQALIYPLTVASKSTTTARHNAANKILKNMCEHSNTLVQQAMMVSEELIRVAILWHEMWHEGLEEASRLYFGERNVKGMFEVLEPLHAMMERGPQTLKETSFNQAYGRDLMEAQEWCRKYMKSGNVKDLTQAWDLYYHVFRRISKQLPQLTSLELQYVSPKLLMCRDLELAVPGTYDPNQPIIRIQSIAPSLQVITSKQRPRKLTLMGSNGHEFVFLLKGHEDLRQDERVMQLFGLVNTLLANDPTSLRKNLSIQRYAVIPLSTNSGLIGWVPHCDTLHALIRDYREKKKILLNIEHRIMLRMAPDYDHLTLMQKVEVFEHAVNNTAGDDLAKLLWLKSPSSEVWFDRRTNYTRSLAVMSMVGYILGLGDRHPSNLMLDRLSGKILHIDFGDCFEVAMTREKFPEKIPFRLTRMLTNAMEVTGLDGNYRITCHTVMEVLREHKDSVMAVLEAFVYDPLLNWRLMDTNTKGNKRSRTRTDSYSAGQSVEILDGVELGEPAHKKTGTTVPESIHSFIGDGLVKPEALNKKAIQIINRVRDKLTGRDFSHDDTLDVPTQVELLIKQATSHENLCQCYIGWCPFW
T1 sequence (P42336 whole entry): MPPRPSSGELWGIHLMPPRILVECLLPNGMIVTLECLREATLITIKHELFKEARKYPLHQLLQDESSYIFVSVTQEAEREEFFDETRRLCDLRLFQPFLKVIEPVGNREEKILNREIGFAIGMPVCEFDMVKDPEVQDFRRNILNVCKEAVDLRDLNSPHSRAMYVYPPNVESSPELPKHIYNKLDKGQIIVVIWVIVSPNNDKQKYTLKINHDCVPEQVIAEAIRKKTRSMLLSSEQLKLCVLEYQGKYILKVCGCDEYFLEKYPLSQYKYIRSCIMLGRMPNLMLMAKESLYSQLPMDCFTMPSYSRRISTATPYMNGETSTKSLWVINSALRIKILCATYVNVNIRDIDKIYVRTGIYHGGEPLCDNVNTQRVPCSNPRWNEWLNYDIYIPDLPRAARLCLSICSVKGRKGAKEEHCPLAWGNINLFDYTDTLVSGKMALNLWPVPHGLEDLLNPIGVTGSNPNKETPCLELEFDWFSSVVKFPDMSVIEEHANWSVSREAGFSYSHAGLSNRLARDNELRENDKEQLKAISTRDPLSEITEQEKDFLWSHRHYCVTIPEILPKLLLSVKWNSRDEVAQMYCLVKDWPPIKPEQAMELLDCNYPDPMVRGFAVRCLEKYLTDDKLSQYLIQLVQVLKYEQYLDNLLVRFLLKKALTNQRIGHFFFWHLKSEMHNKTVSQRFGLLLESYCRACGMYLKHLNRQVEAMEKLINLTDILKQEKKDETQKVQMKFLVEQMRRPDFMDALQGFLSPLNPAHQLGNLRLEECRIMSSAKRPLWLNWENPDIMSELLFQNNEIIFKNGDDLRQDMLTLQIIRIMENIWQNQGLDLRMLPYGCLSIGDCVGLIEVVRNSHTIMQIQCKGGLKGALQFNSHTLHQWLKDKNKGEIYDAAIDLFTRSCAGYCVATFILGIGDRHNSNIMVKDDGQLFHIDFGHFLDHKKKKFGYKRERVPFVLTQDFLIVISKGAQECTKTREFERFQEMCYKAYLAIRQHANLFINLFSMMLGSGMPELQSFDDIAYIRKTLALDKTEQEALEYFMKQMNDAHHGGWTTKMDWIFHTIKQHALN
T1 sequence (P27986 whole entry partner): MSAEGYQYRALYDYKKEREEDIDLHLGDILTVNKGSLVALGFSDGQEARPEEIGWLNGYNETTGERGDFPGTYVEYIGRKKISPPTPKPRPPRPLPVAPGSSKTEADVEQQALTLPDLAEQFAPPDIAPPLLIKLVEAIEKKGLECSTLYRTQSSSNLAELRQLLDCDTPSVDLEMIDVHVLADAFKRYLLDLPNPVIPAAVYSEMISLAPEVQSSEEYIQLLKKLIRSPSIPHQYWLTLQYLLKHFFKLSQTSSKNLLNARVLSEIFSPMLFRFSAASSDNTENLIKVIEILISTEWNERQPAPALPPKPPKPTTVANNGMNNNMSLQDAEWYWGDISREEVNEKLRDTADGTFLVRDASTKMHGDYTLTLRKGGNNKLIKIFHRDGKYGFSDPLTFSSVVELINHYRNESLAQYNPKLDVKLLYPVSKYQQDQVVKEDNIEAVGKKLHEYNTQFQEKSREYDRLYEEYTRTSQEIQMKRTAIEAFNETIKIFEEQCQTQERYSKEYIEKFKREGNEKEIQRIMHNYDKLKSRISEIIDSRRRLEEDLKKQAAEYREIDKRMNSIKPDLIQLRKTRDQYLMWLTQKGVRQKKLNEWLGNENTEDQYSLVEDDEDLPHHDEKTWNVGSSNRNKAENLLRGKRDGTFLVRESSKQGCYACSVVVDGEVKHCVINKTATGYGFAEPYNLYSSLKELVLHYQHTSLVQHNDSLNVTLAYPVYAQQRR

Broadly, the IC50 is the concentration needed to halve the response being measured. Take `C[C@H](O)C(=O)N1CCC(n2nnc3cnc4ccc(-c5cnc(N)c(C(F)(F)F)c5)nc4c32)CC1` [Compound 1, (S)-1-(4-(8-(6-amino-5-(trifluoromethyl)pyridin-3-yl)-1H-[1,2,3]triazolo[4,5-c][1,5]naphthyridin-1-yl)piperidin-1-yl)-2-hydroxypropan-1-one]: the IC50 at PI3Kα kinase and at mTOR kinase was less than 0.1 µM throughout. Turning to `CCC(=O)N1CCC(n2nnc3cnc4ccc(-c5cnc(N)c(C(F)(F)F)c5)nc4c32)CC1` [Compound 6], the half-maximal inhibitory concentration (IC50) at PI3Kα kinase and on mTOR kinase was less than 0.1 µM each time.

Take `COCC(=O)N1CCC(n2nnc3cnc4ccc(-c5cnc(N)c(C(F)(F)F)c5)nc4c32)CC1` [Compound 7]: the IC50 on PI3Kα kinase and at mTOR kinase was less than 0.1 µM in each case. With `CCOc1cc(-c2ccc3ncc4ncn(-c5ccc(C(C)(C)C#N)nc5)c4c3n2)cnc1N` [Compound 108], the IC50 at PI3Kα kinase is less than 0.1 µM. On the same count and under the same terms, the value for `Nc1ncc(-c2ccc3ncc4ncn(CCN5CCOCC5)c4c3n2)cc1C(F)(F)F` [Compound 109] was less than 0.1 µM. As to `C[C@@H](O)C(=O)N1CCC(n2cnc3cnc4ccc(-c5cnc(N)c(C(F)(F)F)c5)nc4c32)CC1` [Compound 110], the IC50 on PI3Kα kinase is less than 0.1 µM. On the same count and under the same terms, the value for `Nc1ncc(-c2ccc3ncc4ncn(CCN5CCCC5)c4c3n2)cc1C(F)(F)F` [Compound 111] was less than 0.1 µM; that for `C#Cc1cc(-c2ccc3ncc4ncn(C5CCN(C(=O)C6CC6)CC5)c4c3n2)cnc1N` [Compound 112] was less than 0.1 µM; that for `Cc1ccc(-c2ccc3ncc4ncn(C5CCN(C(=O)[C@H](C)O)CC5)c4c3n2)cn1` [Compound 113] was less than 0.1 µM. Same read-out and setting: in the case of `Cc1nc2cnc3ccc(-c4cnc(N)c(C(F)(F)F)c4)nc3c2n1C1CCN(CC(=O)N2CCOCC2)CC1` [Compound 124] it was less than 0.1 µM; in that of `Cc1nc2cnc3ccc(-c4cnc(N)c(C(F)(F)F)c4)nc3c2n1C1CCN(CC(=O)N2CCCC2)CC1` [Compound 125], less than 0.1 µM.

As for `Cc1nc2cnc3ccc(-c4cnc(N)c(C(F)(F)F)c4)nc3c2n1C1CCN(C(=O)[C@@H](C)O)CC1` [Compound 126], the concentration for half-maximal inhibition (IC50) at PI3Kα kinase is less than 0.1 µM. On the same count and under the same terms, the value for `Cc1ccc(-c2ccc3ncc4nc(C)n(C5CCN(C(=O)[C@H](C)O)CC5)c4c3n2)cn1` [Compound 127] was less than 0.1 µM; that for `Cc1nc2cnc3ccc(-c4cnc(N)c(C(F)(F)F)c4)nc3c2n1C1CCN(Cc2ccccn2)CC1` [Compound 128] was less than 0.1 µM; that for `COCCN1CCC(n2c(C)nc3cnc4ccc(-c5cnc(N)c(C(F)(F)F)c5)nc4c32)CC1` [Compound 130] was less than 0.1 µM.

Consider `Cc1nc2cnc3ccc(-c4cnc(N)c(C(F)(F)F)c4)nc3c2n1C1CCN(C(=O)c2ccccn2)CC1` [Compound 132], for which, at PI3Kα kinase, the IC50 was less than 0.1 µM. The same measure, in the same setting: the value for `Cc1nc2cnc3ccc(-c4cnc(N)c(C(F)(F)F)c4)nc3c2n1C1CCOCC1` [Compound 133] was less than 0.1 µM; that for `Cc1nc2cnc3ccc(-c4cnc5[nH]ncc5c4)nc3c2n1C1CCOCC1` [Compound 134] was less than 0.1 µM; that for `Cc1nc2cnc3ccc(-c4cnc5[nH]ccc5c4)nc3c2n1C1CCOCC1` [Compound 135] was less than 0.1 µM. Same read-out and setting: in the case of `Cc1cc(-c2ccc3ncc4nc(C)n(C5CCC(N6CCOCC6)CC5)c4c3n2)cnc1N` (stereo not drawn) [Compound 136] it was less than 0.1 µM; in that of `Cc1nc2cnc3ccc(-c4cnc(N)c(C(F)(F)F)c4)nc3c2n1C1CCC(N2CCOCC2)CC1` (stereo not drawn) [Compound 137], less than 0.1 µM. On the same count and under the same terms, in the case of `Cc1nc2cnc3ccc(-c4cnc(N)c(C(F)(F)F)c4)nc3c2n1C1CCN(S(C)(=O)=O)CC1` [Compound 138] it was less than 0.1 µM. For the molecule `COc1ncc(-c2ccc3ncc4nc(C)n(C5CCN(S(C)(=O)=O)CC5)c4c3n2)cn1` [Compound 139], the 50% inhibitory concentration (IC50) at PI3Kα kinase was less than 0.1 µM.

Turning to `C=CC(=O)N1CCC(n2c(C)nc3cnc4ccc(-c5cnc(N)c(C(F)(F)F)c5)nc4c32)CC1` [Compound 140], on PI3Kα kinase, the IC50 was less than 0.1 µM.

In the case of `Cc1nc2cnc3ccc(-c4cnc(N)c(C(F)(F)F)c4)nc3c2n1CCCN1CCOCC1` [Compound 142], the concentration for half-maximal inhibition (IC50) at PI3Kα kinase is less than 0.1 µM. As for `COc1ncc(-c2ccc3ncc4nc(C)n(C5CCN(C(=O)C6CC6)CC5)c4c3n2)cc1C(F)(F)F` [Compound 143], the IC50 on PI3Kα kinase was less than 0.1 µM. Same read-out and setting: the value for `CC#CC(=O)N1CCC(n2c(C)nc3cnc4ccc(-c5cnc(N)c(C(F)(F)F)c5)nc4c32)CC1` [Compound 144] was less than 0.1 µM. As to `C/C=C/C(=O)N1CCC(n2c(C)nc3cnc4ccc(-c5cnc(N)c(C(F)(F)F)c5)nc4c32)CC1` [Compound 145], the IC50 on PI3Kα kinase was less than 0.1 µM. As for `COc1ncc(-c2ccc3ncc4nnc(C)n4c3c2)cc1NS(C)(=O)=O` [Compound 150], on PI3Kα kinase, the 50% inhibitory concentration (IC50) was less than 0.1 µM. Turning to `COc1ncc(-c2ccc3ncc4nncn4c3c2)cc1NS(=O)(=O)c1ccc(F)cc1F` [Compound 161], the IC50 at PI3Kα kinase was less than 0.1 µM. Same read-out and setting: in the case of `COc1ncc(-c2ccc3ncc4nnc(C5CC5)n4c3c2)cc1NS(=O)(=O)c1ccc(F)cc1F` [Compound 162] it was less than 0.1 µM; in that of `COc1ncc(-c2ccc3ncc4n[nH]c(=O)n4c3c2)cc1NS(=O)(=O)c1ccc(F)cc1F` [Compound 163], less than 0.1 µM.

Take `CCS(=O)(=O)Nc1cc(-c2ccc3ncc4nnc(C)n4c3c2)cnc1OC` [Compound 164]: the IC50 at PI3Kα kinase was less than 0.1 µM. The same measure, in the same setting: in the case of `COc1ncc(-c2ccc3ncc4nnc(C(=O)N5CCCC5)n4c3c2)cc1NS(=O)(=O)C1CC1` [Compound 167] it was less than 0.1 µM. On the same count and under the same terms, in the case of `COc1ncc(-c2ccc3ncc4nnc(C(=O)N(C)C)n4c3c2)cc1NS(=O)(=O)C1CC1` [Compound 168] it was less than 0.1 µM; in that of `COc1ncc(-c2ccc3ncc4nnc(C(=O)N(C)C)n4c3c2)cc1NS(=O)(=O)c1ccccc1` [Compound 169], less than 0.1 µM. The same measure, in the same setting: in the case of `COCc1nnc2cnc3ccc(-c4cnc(OC)c(NS(=O)(=O)C5CC5)c4)cc3n12` [Compound 170] it was less than 0.1 µM; in that of `COc1ncc(-c2ccc3ncc4nnc(CCN5CCOCC5)n4c3c2)cc1NS(C)(=O)=O` [Compound 171], less than 0.1 µM. With `COc1ncc(-c2ccc3ncc4nnc(CN5CCOCC5)n4c3c2)cc1NS(C)(=O)=O` [Compound 172], the IC50 at PI3Kα kinase is less than 0.1 µM. Same read-out and setting: the value for `COc1ncc(-c2ccc3ncc4nccn4c3c2)cc1NS(=O)(=O)c1ccc(F)cc1F` [Compound 173] was less than 0.1 µM; that for `COc1ncc(-c2ccc3ncc4nnc(CN5CCCC5)n4c3c2)cc1NS(C)(=O)=O` [Compound 174] was less than 0.1 µM.

Take `COc1ncc(-c2ccc3ncc4nnc(CN5CCCC5)n4c3c2)cc1NS(=O)(=O)c1ccccc1` [Compound 175]: the IC50 on PI3Kα kinase is less than 0.1 µM. On the same count and under the same terms, in the case of `COc1ncc(-c2ccc3ncc4nccn4c3c2)cc1NS(=O)(=O)C(F)(F)F` [Compound 176] it was less than 0.1 µM. Same read-out and setting: in the case of `COc1ncc(-c2ccc3ncc4ncn(CCN5CCOCC5)c4c3n2)cc1NS(C)(=O)=O` [Compound 177] it was less than 0.1 µM.

Take `COc1ncc(-c2ccc3ncc4nnc(C)n4c3c2)cc1NS(=O)(=O)c1ccc(C)cc1` [Compound 179, N-(2-methoxy-5-(1-methyl-[1,2,4]triazolo[4,3-a]quinoxalin-8-yl)pyridin-3-yl)-4-methylbenzenesulfonamide]: on PI3Kα kinase, the IC50 is less than 0.1 µM. Still for that read-out and setting: in the case of `COc1ncc(-c2ccc3ncc4nnc(C)n4c3c2)cc1NS(=O)(=O)c1ccc(F)cc1` [Compound 182] it was less than 0.1 µM; in that of `CC(C)(C#N)c1ccc(-n2cnc3nnc4ccc(-c5cnc(N)c(C(F)(F)F)c5)cc4c32)cc1` [Compound 183, 2-(4-(8-(6-amino-5-(trifluoromethyl)pyridin-3-yl)-1H-imidazo[4,5-c]cinnolin-1-yl)phenyl)-2-methylpropanenitrile], less than 0.1 µM; in that of `Cc1nc2nnc3ccc(-c4cnc(N)c(C(F)(F)F)c4)cc3c2n1-c1ccc(C(C)(C)C#N)cc1` [Compound 184], less than 0.1 µM.
